Results published in patent US5099015A, “Trifluoromethyl 1-carba(1-dethia)cephems” (Eli Lilly and Company, priority 1991, dated 1992).
≈ marks a conversion by molar mass, not a printed value. Read-outs that look alike come from different tables or passages of the source.

Experiments:
Assay in all cases: Agar dilution antibacterial test (MIC)
Type in all cases: cell-based
Citro CF17 = tested on: Citro CF17
Protocol: (§1) Fresh overnight cultures of test bacteria were diluted to approximately 1x(10)4 cells/microliter and applied in one microliter volumes to the surfaces of the agar plates. The innoculated plates were incubated overnight at 35° C. in ambient air. Minimum inhibitory concentration (mic) endpoints were recorded as the lowest antibiotic concentrations in micrograms per milliliter that inhibited the development of visible growth on the plates. The following summarizes the results of such tests with the compounds of the examples listed above.

[1] = tested on: Enterobacter aerogenes EB17
Protocol: as §1

Salmonella 1335 = tested on: Salmonella 1335
Protocol: as §1

[2] = tested on: Staphylococcus epidermidis 222
Protocol: as §1

[3] = tested on: Haemophilus influenzae C.L.
Protocol: as §1

Escherichia coli EC14 = tested on: Escherichia coli EC14
Protocol: as §1

[4] = tested on: Staphylococcus epidermidis EPI270
Protocol: as §1

Serratia X99 = tested on: Serratia X99
Protocol: as §1

[5] = tested on: Staphylococcus aureus S13E
Protocol: as §1

[6] = tested on: Staphylococcus aureus NRRL X1.1
Protocol: as §1

Proteus rett C24 = details: Proteus rett C24
Protocol: as §1

[7] = tested on: Staphylococcus pneumoniae Park 1; details: PARK1, read-out: MIC
Protocol: as §1

[8] = tested on: Klebsiella pneumoniae X68
Protocol: as §1

[9] = tested on: Klebsiella pneumoniae KAE
Protocol: as §1

Escherichia coli TEM = tested on: Escherichia coli TEM
Protocol: as §1

Morg morg PR15 = tested on: Morg morg PR15
Protocol: as §1

Proteus incon PR33 = tested on: Proteus incon PR33
Protocol: as §1

[10] = tested on: Staphylococcus aureus V41
Protocol: as §1

Shig sonn. N9 = tested on: Shig sonn. N9
Protocol: as §1

Serratia SE3 = tested on: Serratia SE3
Protocol: as §1

Enterococcus faecium X66 = tested on: Enterococcus faecium X66
Protocol: as §1

[11] = tested on: Enterobacter cloacae 265A
Protocol: as §1

Enterobacter cloacae EB5 = tested on: Enterobacter cloacae EB5
Protocol: as §1

[12] = tested on: Staphylococcus aureus X400
Protocol: as §1

[13] = tested on: Enterococcus faecalis 2041
Protocol: as §1

Escherichia coli N10 = tested on: Escherichia coli N10
Protocol: as §1

[14] = tested on: Klebsiella pneumoniae X26; details: read-out: MIC
Protocol: as §1

[15] = tested on: Enterobacter aerogenes C32
Protocol: as §1

[16] = tested on: Staphylococcus pyogenes C203; details: read-out: MIC
Protocol: as §1

Salmonella X514 = tested on: Salmonella X514
Protocol: as §1

[17] = tested on: Haemophilus influenzae 76; details: read-out: MIC
Protocol: as §1

Acom AC12 = tested on: Acom AC12
Protocol: as §1

[18] = Klebsiella aerogenes, read-out: MIC

Question: What does the source list for `N[C@@H](C(=O)N[C@@H]1C(=O)N2C(C(=O)O)=C(C(F)(F)F)CC[C@H]12)c1ccccc1` [Compound 1, 7β-[D-α-(amino)phenylacetylamino]-3-trifluoromethyl-1-carba-(1-dethia)-3-cephem-4-carboxyl ic acid]?
Answer: MIC (Citro CF17; read-out: MIC): 8 µg/mL (≈ 20.9 µM); MIC [1, 18]: 4 µg/mL (≈ 10.4 µM); MIC (Salmonella 1335; read-out: MIC): 1 µg/mL (≈ 2.61 µM); MIC ([2]; read-out: MIC): 4 µg/mL (≈ 10.4 µM); MIC ([3]; read-out: MIC): 0.5 µg/mL (≈ 1.3 µM); MIC (Escherichia coli EC14; read-out: MIC): 0.5 µg/mL (≈ 1.3 µM); MIC ([4]; read-out: MIC): 4 µg/mL (≈ 10.4 µM); MIC (Serratia X99; read-out: MIC): 8 µg/mL (≈ 20.9 µM); MIC [5]: 32 µg/mL (≈ 83.5 µM); MIC ([6]; NRRLX1.1, read-out: MIC): 2 µg/mL (≈ 5.22 µM); MIC (Proteus rett C24; read-out: MIC): 8 µg/mL (≈ 20.9 µM); MIC [7]: 0.125 µg/mL (≈ 0.326 µM); MIC ([8]; read-out: MIC): 0.5 µg/mL (≈ 1.3 µM); MIC ([9]; read-out: MIC): 8 µg/mL (≈ 20.9 µM); MIC (Escherichia coli TEM; read-out: MIC): 0.5 µg/mL (≈ 1.3 µM); MIC (Morg morg PR15; read-out: MIC): 32 µg/mL (≈ 83.5 µM); MIC (Proteus incon PR33; read-out: MIC): 16 µg/mL (≈ 41.7 µM); MIC ([10]; read-out: MIC): 16 µg/mL (≈ 41.7 µM); MIC (Shig sonn. N9; read-out: MIC): 1 µg/mL (≈ 2.61 µM); MIC (Serratia SE3; read-out: MIC): 32 µg/mL (≈ 83.5 µM); MIC (Enterococcus faecium X66; read-out: MIC): 32 µg/mL (≈ 83.5 µM); MIC ([11]; read-out: MIC): 16 µg/mL (≈ 41.7 µM); MIC (Enterobacter cloacae EB5; read-out: MIC): 8 µg/mL (≈ 20.9 µM); MIC ([12]; read-out: MIC): 64 µg/mL (≈ 167 µM); MIC ([13]; read-out: MIC): 16 µg/mL (≈ 41.7 µM); MIC (Escherichia coli N10; read-out: MIC): 2 µg/mL (≈ 5.22 µM); MIC [14]: 0.25 µg/mL (≈ 0.652 µM); MIC [15, 18]: 4 µg/mL (≈ 10.4 µM); MIC [16]: 0.06 µg/mL (≈ 0.157 µM); MIC (Salmonella X514; read-out: MIC): 0.25 µg/mL (≈ 0.652 µM); MIC [17]: 1 µg/mL (≈ 2.61 µM)

Question: What does the source list for `N[C@@H](C(=O)N[C@@H]1C(=O)N2C(C(=O)O)=C(C(F)(F)F)CC[C@H]12)c1ccc(O)cc1` [Compound 2, [6R,7S]-7β-[D-α-(amino)-4-hydroxyphenylacetylamino]-3-trifluoromethyl-1-carba-1-dethia-3-cephem-4-carboxylic acid]?
Answer: MIC (Citro CF17; read-out: MIC): 5.3 µg/mL (≈ 13.3 µM); MIC [1, 18]: 1.83 µg/mL (≈ 4.58 µM); MIC (Salmonella 1335; read-out: MIC): 0.58 µg/mL (≈ 1.45 µM); MIC ([2]; read-out: MIC): 2.2 µg/mL (≈ 5.51 µM); MIC ([3]; read-out: MIC): 0.7 µg/mL (≈ 1.75 µM); MIC (Escherichia coli EC14; read-out: MIC): 0.48 µg/mL (≈ 1.2 µM); MIC ([4]; read-out: MIC): 4.4 µg/mL (≈ 11 µM); MIC (Serratia X99; read-out: MIC): 4.7 µg/mL (≈ 11.8 µM); MIC [5]: 70.4 µg/mL (≈ 176 µM); MIC ([6]; NRRLX1.1, read-out: MIC): 0.85 µg/mL (≈ 2.13 µM); MIC (Proteus rett C24; read-out: MIC): 6.7 µg/mL (≈ 16.8 µM); MIC [7]: 0.2 µg/mL (≈ 0.501 µM); MIC ([8]; read-out: MIC): 0.6 µg/mL (≈ 1.5 µM); MIC ([9]; read-out: MIC): 2.3 µg/mL (≈ 5.76 µM); MIC (Escherichia coli TEM; read-out: MIC): 0.75 µg/mL (≈ 1.88 µM); MIC (Morg morg PR15; read-out: MIC): 26.7 µg/mL (≈ 66.9 µM); MIC (Proteus incon PR33; read-out: MIC): 2.3 µg/mL (≈ 5.76 µM); MIC ([10]; read-out: MIC): 7.2 µg/mL (≈ 18 µM); MIC (Shig sonn. N9; read-out: MIC): 0.58 µg/mL (≈ 1.45 µM); MIC (Serratia SE3; read-out: MIC): 16 µg/mL (≈ 40.1 µM); MIC (Enterococcus faecium X66; read-out: MIC): 32 µg/mL (≈ 80.1 µM); MIC ([11]; read-out: MIC): 2.3 µg/mL (≈ 5.76 µM); MIC (Enterobacter cloacae EB5; read-out: MIC): 4.3 µg/mL (≈ 10.8 µM); MIC ([12]; read-out: MIC): 102 µg/mL (≈ 255 µM); MIC ([13]; read-out: MIC): 22.4 µg/mL (≈ 56.1 µM); MIC (Escherichia coli N10; read-out: MIC): 0.85 µg/mL (≈ 2.13 µM); MIC [14]: 0.3 µg/mL (≈ 0.751 µM); MIC (Acom AC12; read-out: MIC): 21.3 µg/mL (≈ 53.3 µM); MIC [15, 18]: 2.08 µg/mL (≈ 5.21 µM); MIC [16]: 0.025 µg/mL (≈ 0.0626 µM); MIC (Salmonella X514; read-out: MIC): 0.19 µg/mL (≈ 0.476 µM); MIC [17]: 0.9 µg/mL (≈ 2.25 µM)

Question: For `CON=C(C(=O)N[C@@H]1C(=O)N2C(C(=O)O)=C(C(F)(F)F)CC[C@H]12)c1csc(N)n1` [Compound 4, [7S,6R]-7-([2-Amino-4-thiazolyl(methoxyimino)acetyl]amido)-3-trifluoromethyl-1-carba(b 1-dethia)-3-cephem-4-carboxylic acid], which MIC (Citro CF17) is on record?
Answer: 8 µg/mL (≈ 18.5 µM)

Question: And the MIC [1]?
Answer: .125 µg/mL (≈ 0.288 µM)

Question: What about the MIC (Salmonella 1335) of the same compound?
Answer: .06 µg/mL (≈ 0.138 µM)

Question: And the MIC [2]?
Answer: 4 µg/mL (≈ 9.23 µM)

Question: And the MIC [3]?
Answer: .015 µg/mL (≈ 0.0346 µM)

Question: And the MIC (Escherichia coli EC14)?
Answer: .03 µg/mL (≈ 0.0692 µM)

Question: What about the MIC [4] of the same compound?
Answer: 8 µg/mL (≈ 18.5 µM)

Question: And the MIC (Serratia X99)?
Answer: .5 µg/mL (≈ 1.15 µM)

Question: What about the MIC [5] of the same compound?
Answer: 16 µg/mL (≈ 36.9 µM)

Question: And the MIC [6]?
Answer: 4 µg/mL (≈ 9.23 µM)

Question: And the MIC (Proteus rett C24)?
Answer: 1 µg/mL (≈ 2.31 µM)

Question: What about the MIC [8] of the same compound?
Answer: .015 µg/mL (≈ 0.0346 µM)

Question: What about the MIC [9] of the same compound?
Answer: 32 µg/mL (≈ 73.8 µM)

Question: What about the MIC (Escherichia coli TEM) of the same compound?
Answer: .125 µg/mL (≈ 0.288 µM)

Question: What about the MIC (Morg morg PR15) of the same compound?
Answer: 4 µg/mL (≈ 9.23 µM)

Question: What about the MIC (Proteus incon PR33) of the same compound?
Answer: .125 µg/mL (≈ 0.288 µM)

Question: What about the MIC [10] of the same compound?
Answer: 8 µg/mL (≈ 18.5 µM)

Question: And the MIC (Shig sonn. N9)?
Answer: .06 µg/mL (≈ 0.138 µM)

Question: What about the MIC (Serratia SE3) of the same compound?
Answer: 2 µg/mL (≈ 4.62 µM)

Question: What about the MIC (Enterococcus faecium X66) of the same compound?
Answer: > 128 µg/mL

Question: And the MIC [11]?
Answer: 64 µg/mL (≈ 148 µM)

Question: What about the MIC (Enterobacter cloacae EB5) of the same compound?
Answer: .25 µg/mL (≈ 0.577 µM)

Question: What about the MIC [12] of the same compound?
Answer: 128 µg/mL (≈ 295 µM)

Question: What about the MIC [13] of the same compound?
Answer: 1 µg/mL (≈ 2.31 µM)

Question: And the MIC (Escherichia coli N10)?
Answer: .06 µg/mL (≈ 0.138 µM)

Question: What about the MIC (Acom AC12) of the same compound?
Answer: 16 µg/mL (≈ 36.9 µM)

Question: And the MIC [15]?
Answer: .25 µg/mL (≈ 0.577 µM)

Question: What about the MIC (Salmonella X514) of the same compound?
Answer: .015 µg/mL (≈ 0.0346 µM)
